Source: US20260132140A1, “IMIDAZOLYL-AMINO-PYRAZINE-CARBONITRILS AS CHK-1 INHIBITORS” (BenevolentAI Bio Limited, priority 2022, published 2026)

Tests used:
human Chk2 kinase = human Chk2 kinase (Homo sapiens, UniProt O96017); assay: biochemical
human Chk1 kinase = target: T1, human Chk1 kinase (Homo sapiens, UniProt O14757); assay: biochemical
T1 sequence (O14757 1-476): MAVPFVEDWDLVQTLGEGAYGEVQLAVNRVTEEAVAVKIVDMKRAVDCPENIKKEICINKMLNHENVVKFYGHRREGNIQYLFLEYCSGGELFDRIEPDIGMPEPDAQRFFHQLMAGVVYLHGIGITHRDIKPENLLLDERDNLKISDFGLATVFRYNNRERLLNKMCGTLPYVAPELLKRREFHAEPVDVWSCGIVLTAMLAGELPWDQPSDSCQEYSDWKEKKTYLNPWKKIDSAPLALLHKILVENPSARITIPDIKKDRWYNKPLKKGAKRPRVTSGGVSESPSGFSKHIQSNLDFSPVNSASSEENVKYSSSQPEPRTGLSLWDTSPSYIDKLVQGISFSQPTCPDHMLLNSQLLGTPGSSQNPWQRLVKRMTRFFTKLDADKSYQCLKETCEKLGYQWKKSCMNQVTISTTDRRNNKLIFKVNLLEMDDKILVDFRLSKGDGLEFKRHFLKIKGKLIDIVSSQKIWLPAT

human Chk2 kinase, sequence (O96017 whole entry): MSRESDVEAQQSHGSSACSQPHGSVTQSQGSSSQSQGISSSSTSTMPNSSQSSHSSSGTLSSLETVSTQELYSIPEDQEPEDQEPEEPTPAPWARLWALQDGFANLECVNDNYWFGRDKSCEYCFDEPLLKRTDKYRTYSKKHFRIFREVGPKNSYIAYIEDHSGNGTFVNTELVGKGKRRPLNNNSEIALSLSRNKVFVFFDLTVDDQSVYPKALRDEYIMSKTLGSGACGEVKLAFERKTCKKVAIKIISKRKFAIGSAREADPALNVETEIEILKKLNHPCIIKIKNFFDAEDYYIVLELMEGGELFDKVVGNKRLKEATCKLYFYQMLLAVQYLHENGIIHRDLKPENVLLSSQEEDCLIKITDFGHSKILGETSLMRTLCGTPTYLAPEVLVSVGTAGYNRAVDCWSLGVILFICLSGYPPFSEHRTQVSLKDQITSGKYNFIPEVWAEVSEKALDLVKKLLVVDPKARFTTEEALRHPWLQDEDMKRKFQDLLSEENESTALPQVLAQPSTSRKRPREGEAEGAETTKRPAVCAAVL

IC50 (human Chk2 kinase) [nM] | IC50 (human Chk1 kinase) [nM] | SMILES
10000 to 100000 | < 10 | CC(C)C1CN(C2CCN(c3ccc(-n4cnc(Nc5cnc(C#N)cn5)c4)cc3)C2)C1 (single isomer, unassigned) [Example 133, 5-((1-(4-(3-(3-Isopropylazetidin-1-yl)pyrrolidin-1-yl)phenyl)-1H-imidazol-4-yl)amino)pyrazine-2-carbonitrile]
> 100000 | 10 to 31.6 | CC(C)C1CN(C2CCN(c3ccc(-n4cnc(Nc5cnc(C#N)cn5)c4)cc3)C2)C1 (single isomer, unassigned) [Example 134, 5-((1-(4-(3-(3-Isopropylazetidin-1-yl)pyrrolidin-1-yl)phenyl)-1H-imidazol-4-yl)amino)pyrazine-2-carbonitrile]
10000 to 100000 | 10 to 31.6 | C[C@@H]1CCN1C1CCN(c2ccc(-n3cnc(Nc4cnc(C#N)cn4)c3)cc2)C1 (single isomer, unassigned) [Example 135]
> 100000 | 31.6 to 100 | C[C@@H]1CCN1C1CCN(c2ccc(-n3cnc(Nc4cnc(C#N)cn4)c3)cc2)C1 (single isomer, unassigned) [Example 136]
> 100000 | 10 to 31.6 | C[C@H]1CCN1C1CCN(c2ccc(-n3cnc(Nc4cnc(C#N)cn4)c3)cc2)C1 (single isomer, unassigned) [Example 137]
1000 to 10000 | < 10 | C[C@H]1CCN1C1CCN(c2ccc(-n3cnc(Nc4cnc(C#N)cn4)c3)cc2)C1 (single isomer, unassigned) [Example 138]
> 100000 | 31.6 to 100 | CC1(C)CCN1C1CCN(c2ccc(-n3cnc(Nc4cnc(C#N)cn4)c3)cc2)C1 (single isomer, unassigned) [Example 139, 5-((1-(4-(3-(2,2-Dimethylazetidin-1-yl)pyrrolidin-1-yl)phenyl)-1H-imidazol-4-yl)amino)pyrazine-2-carbonitrile]
1000 to 10000 | < 10 | CC1(C)CCN1C1CCN(c2ccc(-n3cnc(Nc4cnc(C#N)cn4)c3)cc2)C1 (single isomer, unassigned) [Example 140, 5-((1-(4-(3-(2,2-Dimethylazetidin-1-yl)pyrrolidin-1-yl)phenyl)-1H-imidazol-4-yl)amino)pyrazine-2-carbonitrile]
> 100000 | 31.6 to 100 | N#Cc1cnc(Nc2cn(-c3cccc(N4CCC(N)C(F)(F)C4)c3)cn2)cn1 (single isomer, unassigned) [Example 166, 5-((1-(3-(4-Amino-3,3-difluoropiperidin-1-yl)phenyl)-1H-imidazol-4-yl)amino)pyrazine-2-carbonitrile]
> 100000 | 316 to 1000 | N#Cc1cnc(Nc2cn(-c3ccc(CN4CC[C@@H](F)C4)c(Cl)c3)cn2)cn1 [Example 2, (R)-5-((1-(3-Chloro-4-((3-fluoropyrrolidin-1-yl)methyl)phenyl)-1H-imidazol-4-yl)amino)pyrazine-2-carbonitrile]
> 100000 | 316 to 1000 | COc1cc(CN2CC[C@@H](F)C2)cc(F)c1-n1cnc(Nc2cnc(C#N)cn2)c1 [Example 5, (R)-5-((1-(2-Fluoro-4-((3-fluoropyrrolidin-1-yl)methyl)-6-methoxyphenyl)-1H-imidazol-4-yl)amino)pyrazine-2-carbonitrile]
> 100000 | 100 to 316 | N#Cc1cnc(Nc2cn(-c3ccc(CN4CC[C@@H](F)C4)cc3F)cn2)cn1 [Example 6, (R)-5-((1-(2-Fluoro-4-((3-fluoropyrrolidin-1-yl)methyl)phenyl)-1H-imidazol-4-yl)amino)pyrazine-2-carbonitrile]
> 100000 | 100 to 316 | CN1CCN(Cc2ccc(-n3cnc(Nc4cnc(C#N)cn4)c3)cc2)CC1 [Example 7, 5-((1-(4-((4-Methylpiperazin-1-yl)methyl)phenyl)-1H-imidazol-4-yl)amino)pyrazine-2-carbonitrile]
10000 to 100000 | 10 to 31.6 | CN1C[C@H]2C[C@@H]1CN2c1ccc(-n2cnc(Nc3cnc(C#N)cn3)c2)cc1 [Example 9, 5-((1-(4-((1R,4R)-5-Methyl-2,5-diazabicyclo[2.2.1]heptan-2-yl)phenyl)-1H-imidazol-4-yl)amino)pyrazine-2-carbonitrile]
10000 to 100000 | 10 to 31.6 | CN1C[C@@H]2C[C@H]1CN2c1ccc(-n2cnc(Nc3cnc(C#N)cn3)c2)cc1 [Example 10, 5-((1-(4-((1S,4S)-5-Methyl-2,5-diazabicyclo[2.2.1]heptan-2-yl)phenyl)-1H-imidazol-4-yl)amino)pyrazine-2-carbonitrile]
10000 to 100000 | 10 to 31.6 | COc1cc(NC2CCN(C)CC2)ccc1-n1cnc(Nc2cnc(C#N)cn2)c1 [Example 13, 5-((1-(2-Methoxy-4-((1-methylpiperidin-4-yl)amino)phenyl)-1H-imidazol-4-yl)amino)pyrazine-2-carbonitrile]

IC50 (human Chk2 kinase) [nM] | IC50 (human Chk1 kinase) [nM] | SMILES
10000 to 100000 | 10 to 31.6 | COc1cc(N(C)C2CCN(C)CC2)ccc1-n1cnc(Nc2cnc(C#N)cn2)c1 [Example 14, 5-((1-(2-Methoxy-4-(methyl(1-methylpiperidin-4-yl)amino)phenyl)-1H-imidazol-4-yl)amino)pyrazine-2-carbonitrile]
10000 to 100000 | 10 to 31.6 | C[C@@H]1CN(C)CCN1c1ccc(-n2cnc(Nc3cnc(C#N)cn3)c2)cc1 [Example 16, (R)-5-((1-(4-(2,4-Dimethylpiperazin-1-yl)phenyl)-1H-imidazol-4-yl)amino)pyrazine-2-carbonitrile]
10000 to 100000 | 31.6 to 100 | C[C@H]1CN(C)CCN1c1ccc(-n2cnc(Nc3cnc(C#N)cn3)c2)cc1 [Example 17, (S)-5-((1-(4-(2,4-Dimethylpiperazin-1-yl)phenyl)-1H-imidazol-4-yl)amino)pyrazine-2-carbonitrile]
1000 to 10000 | 10 to 31.6 | CN1CCN(c2ccc(-n3cnc(Nc4cnc(C#N)cn4)c3)nc2)CC1 [Example 18, 5-((1-(5-(4-Methylpiperazin-1-yl)pyridin-2-yl)-1H-imidazol-4-yl)amino)pyrazine-2-carbonitrile]
10000 to 100000 | 100 to 316 | CN1CCN(c2ccc(-n3cnc(Nc4cnc(C#N)cn4)c3)cn2)CC1 [Example 19, 5-((1-(6-(4-Methylpiperazin-1-yl)pyridin-3-yl)-1H-imidazol-4-yl)amino)pyrazine-2-carbonitrile]
10000 to 100000 | 100 to 316 | CN1CCCN(c2ccc(-n3cnc(Nc4cnc(C#N)cn4)c3)cn2)CC1 [Example 20, 5-((1-(6-(4-methyl-1,4-Diazepan-1-yl)pyridin-3-yl)-1H-imidazol-4-yl)amino)pyrazine-2-carbonitrile]
10000 to 100000 | 31.6 to 100 | CN1CCN(c2ccc(-n3cnc(Nc4cnc(C#N)cn4)c3)cc2F)CC1 [Example 21, 5-((1-(3-Fluoro-4-(4-methylpiperazin-1-yl)phenyl)-1H-imidazol-4-yl)amino)pyrazine-2-carbonitrile]
> 100000 | 31.6 to 100 | CN1C[C@H](OCc2ccc(-n3cnc(Nc4cnc(C#N)cn4)c3)cc2)[C@@H](F)C1 [Example 24, 5-((1-(4-((((3S,4S)-4-Fluoro-1-methylpyrrolidin-3-yl)oxy)methyl)phenyl)-1H-imidazol-4-yl)amino)pyrazine-2-carbonitrile]
10000 to 100000 | 10 to 31.6 | CN1CCC(Nc2ccc(-n3cnc(Nc4cnc(C#N)cn4)c3)cc2)CC1 [Example 26, 5-((1-(4-((1-Methylpiperidin-4-yl)amino)phenyl)-1H-imidazol-4-yl)amino)pyrazine-2-carbonitrile]
1000 to 10000 | < 10 | CCN1CCN(c2ccc(-n3cnc(Nc4cnc(C#N)cn4)c3)c(OC)c2)CC1 [Example 27, 5-((1-(4-(4-Ethylpiperazin-1-yl)-2-methoxyphenyl)-1H-imidazol-4-yl)amino)pyrazine-2-carbonitrile]
10000 to 100000 | 10 to 31.6 | Cc1cc(-n2cnc(Nc3cnc(C#N)cn3)c2)ccc1N1CCN(C)CC1 [Example 28, 5-((1-(3-Methyl-4-(4-methylpiperazin-1-yl)phenyl)-1H-imidazol-4-yl)amino)pyrazine-2-carbonitrile]
10000 to 100000 | < 10 | COc1cc(N2CCN3CCC[C@H]3C2)ccc1-n1cnc(Nc2cnc(C#N)cn2)c1 [Example 30, (S)-5-((1-(4-(Hexahydropyrrolo[1,2-a]pyrazin-2(1H)-yl)-2-methoxyphenyl)-1H-imidazol-4-yl)amino)pyrazine-2-carbonitrile]
10000 to 100000 | 10 to 31.6 | COc1cc(N2CCN(C)C[C@@H]2C)ccc1-n1cnc(Nc2cnc(C#N)cn2)c1 [Example 31, (S)-5-((1-(4-(2,4-Dimethylpiperazin-1-yl)-2-methoxyphenyl)-1H-imidazol-4-yl)amino)pyrazine-2-carbonitrile]
> 100000 | < 10 | CN(C)C1CN(c2ccc(-n3cnc(Nc4cnc(C#N)cn4)c3)cc2)C1 [Example 32, 5-((1-(4-(3-(Dimethylamino)azetidin-1-yl)phenyl)-1H-imidazol-4-yl)amino)pyrazine-2-carbonitrile]
10000 to 100000 | 31.6 to 100 | CN1CCCN(c2cccc(-n3cnc(Nc4cnc(C#N)cn4)c3)c2)CC1 [Example 33, 5-((1-(3-(4-Methyl-1,4-diazepan-1-yl)phenyl)-1H-imidazol-4-yl)amino)pyrazine-2-carbonitrile]
10000 to 100000 | 10 to 31.6 | CN1CCCC12CN(c1cccc(-n3cnc(Nc4cnc(C#N)cn4)c3)c1)C2 [Example 34, 5-((1-(3-(5-Methyl-2,5-diazaspiro[3.4]octan-2-yl)phenyl)-1H-imidazol-4-yl)amino)pyrazine-2-carbonitrile]
